According to PubChem BioAssay AID272 (DTP/NCI, 2004):
Records with an inconclusive call do not appear.

System: Lewis lung carcinoma i.m., BDF1 mice, T/C %
Experiment: NCI In Vivo Anticancer Drug Screen. Data for tumor model Lewis Lung Carcinoma (intramuscular) in B6D2F1 (BDF1) mice
Conditions: schedule: Q01DX011 (ip)
Summary of the method: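 Mice carrying transplantable tumours received test compound. Survival or tumour size was recorded and expressed as the treated-group value (T) divided by the vehicle-treated control-group value (C).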

**Q.** With `COc1cc(C[C@H]2c3cc(OC)c(OC)cc3CCN2C)c(Oc2cc3c(cc2OC)-c2c(OC)c(OC)cc4c2[C@H](C3)N(C)CC4)cc1OC` as the molecule, how does the T/C (endpoint: mean tumor weight, dose: 12.5 mg/kg/injection, vehicle: other, higher = larger tumour) read?
**A.** 104 % of control

**Q.** What about the T/C (endpoint: mean tumor weight, dose: 25.0 mg/kg/injection, vehicle: other, higher = larger tumour) of the same molecule?
**A.** 100 % of control

**Q.** What about the T/C (endpoint: mean tumor weight, dose: 50.0 mg/kg/injection, vehicle: other, higher = larger tumour) of the same molecule?
**A.** 93 % of control

**Q.** What about the T/C (endpoint: median survival time, dose: 12.5 mg/kg/injection, vehicle: other, higher = longer survival) of the same molecule?
**A.** 105 % of control

**Q.** What about the T/C (endpoint: median survival time, dose: 25.0 mg/kg/injection, vehicle: other, higher = longer survival) of the same molecule?
**A.** 108 % of control

**Q.** What about the T/C (endpoint: median survival time, dose: 50.0 mg/kg/injection, vehicle: other, higher = longer survival) of the same molecule?
**A.** 117 % of control

**Q.** Which T/C (endpoint: mean tumor weight (est.), dose: 27.5 mg/kg/injection, vehicle: saline, higher = larger tumour) does the source give for `CCN(CC)CCN1C(=O)c2cccc3cccc(c23)C1=O` here?
**A.** 76 % of control

**Q.** What about the T/C (endpoint: mean tumor weight (est.), dose: 55.0 mg/kg/injection, vehicle: saline, higher = larger tumour) of the same molecule?
**A.** 55 % of control

**Q.** What about the T/C (endpoint: mean tumor weight (est.), dose: 110.0 mg/kg/injection, vehicle: saline, higher = larger tumour) of the same molecule?
**A.** 64 % of control

**Q.** `CCCCN(CC)C(=S)S[Te](SC(=S)N(CC)CCCC)(SC(=S)N(CC)CCCC)SC(=S)N(CC)CCCC` was tested. Which T/C (endpoint: mean tumor weight (est.), dose: 100.0 mg/kg/injection, vehicle: saline with Tween-80, higher = larger tumour) did it give?
**A.** 72 % of control

**Q.** What about the T/C (endpoint: mean tumor weight (est.), dose: 200.0 mg/kg/injection, vehicle: saline with Tween-80, higher = larger tumour) of the same molecule?
**A.** 54 % of control

**Q.** What about the T/C (endpoint: mean tumor weight (est.), dose: 400.0 mg/kg/injection, vehicle: saline with Tween-80, higher = larger tumour) of the same molecule?
**A.** 29 % of control

**Q.** What about the T/C (endpoint: median survival time, dose: 100.0 mg/kg/injection, vehicle: saline with Tween-80, higher = longer survival) of the same molecule?
**A.** 121 % of control

**Q.** What about the T/C (endpoint: median survival time, dose: 200.0 mg/kg/injection, vehicle: saline with Tween-80, higher = longer survival) of the same molecule?
**A.** 114 % of control

**Q.** What about the T/C (endpoint: median survival time, dose: 400.0 mg/kg/injection, vehicle: saline with Tween-80, higher = longer survival) of the same molecule?
**A.** 121 % of control

**Q.** What does the source list for `Cc1cc(C)c(C(=O)CC(=O)c2cccnc2)c(C)c1`?
**A.** T/C (endpoint: mean tumor weight (est.), dose: 8.75 mg/kg/injection, vehicle: other, higher = larger tumour): 69 % of control; T/C (endpoint: mean tumor weight (est.), dose: 17.5 mg/kg/injection, vehicle: other, higher = larger tumour): 70 % of control; T/C (endpoint: mean tumor weight (est.), dose: 35.0 mg/kg/injection, vehicle: other, higher = larger tumour): 93 % of control; T/C (endpoint: mean tumor weight (est.), dose: 70.0 mg/kg/injection, vehicle: other, higher = larger tumour): 83 % of control; T/C (endpoint: median survival time, dose: 8.75 mg/kg/injection, vehicle: other, higher = longer survival): 92 % of control; T/C (endpoint: median survival time, dose: 17.5 mg/kg/injection, vehicle: other, higher = longer survival): 106 % of control; T/C (endpoint: median survival time, dose: 35.0 mg/kg/injection, vehicle: other, higher = longer survival): 106 % of control; T/C (endpoint: median survival time, dose: 70.0 mg/kg/injection, vehicle: other, higher = longer survival): 94 % of control

**Q.** How did the T/C (endpoint: mean tumor weight (est.), dose: 1.0 mg/kg/injection, vehicle: saline with Tween-80, higher = larger tumour) turn out when `CC(C)n1c2c([n+](C)c1/C=C/c1ccccc1)C(=O)c1ccccc1C2=O` was run?
**A.** 43 % of control

**Q.** What does the source list for `Cc1c[n+]2c3ccccc3c3ccccc3c2s1`?
**A.** T/C (endpoint: mean tumor weight, dose: 10.0 mg/kg/injection, vehicle: saline, higher = larger tumour): 112 % of control; T/C (endpoint: median survival time, dose: 10.0 mg/kg/injection, vehicle: saline with Tween-80, higher = longer survival): 89 % of control
